# Results taken from ChEMBL document CHEMBL1145324, “Design, synthesis, and biochemical evaluation of novel cruzain inhibitors with potential application in the treatment of Chagas' disease” (Bioorg Med Chem Lett, 2006).
# Biological target: Cruzipain (Trypanosoma cruzi, UniProt P25779)
# Assay: Inhibition of Trypanosoma cruzi recombinant cruzain
# Chain of Cruzipain (P25779 whole entry): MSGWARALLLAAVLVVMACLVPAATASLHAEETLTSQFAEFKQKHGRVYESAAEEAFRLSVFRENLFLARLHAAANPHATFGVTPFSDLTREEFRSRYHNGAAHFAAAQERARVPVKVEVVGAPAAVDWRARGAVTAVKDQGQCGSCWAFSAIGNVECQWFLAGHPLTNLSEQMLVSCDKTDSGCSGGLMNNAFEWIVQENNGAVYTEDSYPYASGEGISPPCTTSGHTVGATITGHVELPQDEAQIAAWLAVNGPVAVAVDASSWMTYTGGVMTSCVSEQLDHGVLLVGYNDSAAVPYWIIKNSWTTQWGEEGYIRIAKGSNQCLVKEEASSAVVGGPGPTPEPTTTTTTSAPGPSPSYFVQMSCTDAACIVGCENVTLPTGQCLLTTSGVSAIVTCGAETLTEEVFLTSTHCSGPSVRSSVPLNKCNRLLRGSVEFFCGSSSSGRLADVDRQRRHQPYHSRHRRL
row,IC50 [µM],SMILES
1,> 20,NC(=S)N/N=C1\CCS(=O)(=O)c2ccccc21
2,> 20,C/C(=N/NC(N)=S)C1=CCCc2ccccc21
3,> 5,NC(=S)N/N=C1/CCC(c2ccc(Br)cc2)C1 (configuration not stated)
4,> 16,NC(=S)N/N=C1\CCc2ccccc2O1
5,0.8,C=CC(=O)C1=CCCc2ccc(Br)cc21
6,> 17,NC(=S)N/N=C1\CCc2ccccc21
7,> 17,NC(=S)N/N=C1\CCOc2ccccc21
8,> 33,CC/C(=N\NC(N)=S)c1cccc(O)c1
9,0.11,NC(=S)N/N=C1\CCOc2ccc(Br)cc21
10,> 3.64,CC/C(=N\NC(N)=S)c1cccc(N)c1
11,1.36,CC(=O)C1=CCCc2ccccc21

row,SMILES,IC50 [µM]
1,NC(=S)N/N=C1/CCCC(c2ccc(Br)cc2)C1 (configuration not stated),> 7
